Laboratory results from US9650395B2, “Antibacterial compounds and methods for use” (PTC Therapeutics, Inc., priority 2011, dated 2017).
In brackets after ≈: the same amount, converted by molar mass. Where two headings read alike, the source gives them in different places.

How the values were obtained:
[1] = system: super sensitive Gram-negative Escherichia coli (E. coli) BAS849; experiment: Antibacterial activity, microbroth dilution MIC, E. coli BAS849; type: cell-based; details: Escherichia coli, read-out: MIC, BAS849
[2] = system: Moraxella catarrhalis (M. catarrhalis) 25238; experiment: Antibacterial activity, MIC, M. catarrhalis 25238; type: cell-based; details: Moraxella catarrhalis, M. catarrhalis 25238; read-out: MIC 25238
[3] = system: Haemophilus influenzae (H. influenzae) 49247; experiment: Antibacterial activity, MIC, H. influenzae 49247; type: cell-based; details: Haemophilus influenzae; H. influenzae 49247; read-out: MIC 49247
Excerpt: (§1) The antibacterial activity from a microbroth dilution method may be presented as the minimum inhibitory concentration (MIC in […]). The MIC value is the lowest concentration of a drug which prevents macroscopically visible bacterial growth under test conditions.
Antibacterial activity of test compounds against the Gram-negative bacteria Haemophilus influenzae (H. influenzae) 49247, Moraxella catarrhalis (M. catarrhalis) 25238 and Neisseria meningitidis (N. meningitidis) 13090 is shown in Table 6.

[4] = system: control Gram-negative E. coli 25922 strain; experiment: Antibacterial activity, microbroth dilution MIC, E. coli 25922; type: cell-based, Escherichia coli; details: Escherichia coli; E. coli 25922, microbroth dilution; read-out: MIC, 25922
[5] = system: Gram-positive Staphylococcus aureus (S. aureus) 29213; experiment: Antibacterial activity, microbroth dilution MIC, S. aureus 29213; type: cell-based; details: Staphylococcus aureus; S. aureus 29213, microbroth dilution; read-out: MIC, 29213
[6] = system: Neisseria meningitidis (N. meningitidis) 13090; experiment: Antibacterial activity, MIC, N. meningitidis 13090; type: cell-based; details: Neisseria meningitidis; N. meningitidis 13090; read-out: MIC 13090
[7] = system: E. coli ELZ4000 (MDR clinical isolate); experiment: Antibacterial activity, MIC, MDR E. coli ELZ4000; type: cell-based, Escherichia coli; details: Escherichia coli; E. coli ELZ4000, MDR clinical isolate; read-out: MIC ELZ4000
[8] = system: quinolone resistant E. coli LZ3111; experiment: Antibacterial activity, MIC, quinolone resistant E. coli LZ3111; type: cell-based, Escherichia coli; details: Escherichia coli, read-out: MIC, LZ3111
Excerpt: as §1
Mutations in these regions are known to confer a high level resistance to the quinolone class of antibiotics.

[9] = system: E. coli ELZ4251 (MDR clinical isolate); experiment: Antibacterial activity, MIC, MDR E. coli ELZ4251; type: cell-based, Escherichia coli; details: Escherichia coli, E. coli ELZ4251, MDR clinical isolate; read-out: MIC ELZ4251
[10] = system: Pseudomonas aeruginosa (P. aeruginosa) 27853; experiment: Antibacterial activity, MIC, P. aeruginosa 27853; type: cell-based; details: Pseudomonas aeruginosa, P. aeruginosa 27853; read-out: MIC 27853
Excerpt: as §1
Antibacterial activity of test compounds against the Gram-negative bacterium Pseudomonas aeruginosa (P. aeruginosa) 27853 is shown in Table 5.

[11] = E. coli BAS849, microbroth dilution

| SMILES | MIC [1] [µg/mL] | MIC [2] [µg/mL] | MIC [3] [µg/mL] | MIC [4] [µg/mL] | MIC [5] [µg/mL] | MIC [6] [µg/mL] | MIC [7] [µg/mL] | MIC [8] [µg/mL] | MIC [1, 11] [µg/mL] | MIC [9] [µg/mL] | MIC [10] [µg/mL] |
| --- | --- | --- | --- | --- | --- | --- | --- | --- | --- | --- | --- |
| CCc1cc(C(=O)O)c(=O)[nH]c1-c1ccc(N2CCNCC2)cc1.O=C(O)C(F)(F)F [Cpd 103, 5-ethyl-2-oxo-6-[4-(piperazin-1-yl)phenyl]-1,2-dihydropyridine-3-carboxylic acid trifluoroacetate] | 3.5 to 12.5 | 12.5 to 150 | < 1 | 12.5 to 150 | 12.5 to 150 | 3.5 to 12.5 |  |  |  |  |  |
| CCc1cc(C(=O)O)c(=O)[nH]c1-c1ccc(N2CCC(CNCc3ccccc3)C2)cc1.Cl (stereo not drawn) [Cpd 182, 6-(4-{3-[(benzylamino)methyl]pyrrolidin-1-yl}phenyl)-5-ethyl-2-oxo-1,2-dihydropyridine-3-carboxylic acid hydrochloride] |  | < 1 |  | < 1 | 12.5 to 150 | < 1 | 12.5 to 150 | 12.5 to 150 | < 1 | 12.5 to 150 |  |
| CCc1c(-c2ccc(N(CC)CC)cc2)[nH]c(=O)c(C(=O)O)c1O [Cpd 98, 6-[4-(diethylamino)phenyl]-5-ethyl-4-hydroxy-2-oxo-1,2-dihydropyridine-3-carboxylic acid] |  | 3.5 to 12.5 (≈ 10.6 to 37.8 µM) | 1 to 3.5 (≈ 3.03 to 10.6 µM) | 12.5 to 150 (≈ 37.8 to 454 µM) | 3.5 to 12.5 (≈ 10.6 to 37.8 µM) | < 1 |  |  | < 1 |  |  |
| CN(C)c1ccc(-c2[nH]c(=O)c(C(=O)O)c(O)c2Cc2ccccc2)cc1 [Cpd 2, 5-benzyl-6-[4-(dimethylamino)phenyl]-4-hydroxy-2-oxo-1,2-dihydropyridine-3-carboxylic acid] |  | < 1 | < 1 | 12.5 to 150 (≈ 34.3 to 412 µM) | 3.5 to 12.5 (≈ 9.6 to 34.3 µM) | < 1 |  |  | 12.5 to 150 (≈ 34.3 to 412 µM) |  |  |
| CCc1cc(C(=O)O)c(=O)[nH]c1-c1ccc(N)cc1 [Cpd 3, 6-(4-aminophenyl)-5-ethyl-2-oxo-1,2-dihydropyridine-3-carboxylic acid] |  | < 1 |  | 3.5 to 12.5 (≈ 13.6 to 48.4 µM) | 12.5 to 150 (≈ 48.4 to 581 µM) | < 1 | 12.5 to 150 (≈ 48.4 to 581 µM) | 12.5 to 150 (≈ 48.4 to 581 µM) | < 1 | 12.5 to 150 (≈ 48.4 to 581 µM) |  |
| CCc1cc(C(=O)O)c(=O)[nH]c1-c1ccc(N2CCC[C@H]2COC)cc1 [Cpd 146, 5-ethyl-6-{4-[(2S)-2-(methoxymethyl)pyrrolidin-1-yl]phenyl}-2-oxo-1,2-dihydropyridine-3-carboxylic acid] |  | < 1 | 1 to 3.5 (≈ 2.81 to 9.82 µM) | 12.5 to 150 (≈ 35.1 to 421 µM) | 12.5 to 150 (≈ 35.1 to 421 µM) | < 1 |  |  | < 1 |  |  |
| CCc1c(-c2ccc(N(C)C)cc2)[nH]c(=O)c(C(=O)O)c1OC [Cpd 298, 6-[4-(dimethylamino)phenyl]-5-ethyl-4-methoxy-2-oxo-1,2-dihydropyridine-3-carboxylic acid] |  | 12.5 to 150 (≈ 39.5 to 474 µM) | 3.5 to 12.5 (≈ 11.1 to 39.5 µM) | 12.5 to 150 (≈ 39.5 to 474 µM) | 12.5 to 150 (≈ 39.5 to 474 µM) | 3.5 to 12.5 (≈ 11.1 to 39.5 µM) |  |  | 3.5 to 12.5 (≈ 11.1 to 39.5 µM) |  |  |
| CCc1cc(C(=O)O)c(=O)[nH]c1-c1ccc(N(C)CCOC2CCCCO2)cc1 (stereo not drawn) [Cpd 16, 5-ethyl-6-(4-{methyl[2-(tetrahydro-2H-pyran-2-yloxy)ethyl]amino}phenyl)-2-oxo-1,2-dihydropyridine-3-carboxylic acid] |  | < 1 | < 1 | 3.5 to 12.5 (≈ 8.74 to 31.2 µM) | 12.5 to 150 (≈ 31.2 to 375 µM) |  | 12.5 to 150 (≈ 31.2 to 375 µM) | 12.5 to 150 (≈ 31.2 to 375 µM) | < 1 | 12.5 to 150 (≈ 31.2 to 375 µM) |  |
| CCc1cc(C(=O)O)c(=O)[nH]c1-c1ccc(N2CCC(CN(C)C)C2)cc1.O=C(O)C(F)(F)F (stereo not drawn) [Cpd 185, 6-(4-{3-[(dimethylamino)methyl]pyrrolidin-1-yl}phenyl)-5-ethyl-2-oxo-1,2-dihydropyridine-3-carboxylic acid trifluoroacetate] | < 1 | 1 to 3.5 |  | 3.5 to 12.5 | 12.5 to 150 | < 1 | 12.5 to 150 | 12.5 to 150 |  | 12.5 to 150 |  |
| CCc1cc(C(=O)O)c(=O)[nH]c1-c1ccc(N(C)CC)cc1 [Cpd 160, 5-ethyl-6-{4-[ethyl(methyl)amino]phenyl}-2-oxo-1,2-dihydropyridine-3-carboxylic acid] |  | < 1 | < 1 | 1 to 3.5 (≈ 3.33 to 11.7 µM) | 12.5 to 150 (≈ 41.6 to 499 µM) |  | 12.5 to 150 (≈ 41.6 to 499 µM) | 12.5 to 150 (≈ 41.6 to 499 µM) | < 1 | 12.5 to 150 (≈ 41.6 to 499 µM) |  |
| CCc1cc(C(=O)O)c(=O)[nH]c1-c1ccc(N2C[C@H]3CCN(C)[C@H]3C2)cc1.O=C(O)C(F)(F)F [Cpd 187, 5-ethyl-6-{4-[(3aR,6aR)-1-methylhexahydropyrrolo[3,4-b]pyrrol-5(1H)-yl]phenyl}-2-oxo-1,2-dihydropyridine-3-carboxylic acid trifluoroacetate] | < 1 | 1 to 3.5 |  | 3.5 to 12.5 | 12.5 to 150 | < 1 | 12.5 to 150 | 12.5 to 150 |  | 12.5 to 150 |  |
| CCc1cc(C(=O)O)c(=O)[nH]c1-c1ccc(N2C[C@H]3CCC[C@H](N)[C@H]3C2)cc1.O=C(O)C(F)(F)F [Cpd 203, 6-{4-[(3aR,4S,7aS)-4-aminooctahydro-2H-isoindol-2-yl]phenyl}-5-ethyl-2-oxo-1,2-dihydropyridine-3-carboxylic acid trifluoroacetate] | 1 to 3.5 |  |  | 12.5 to 150 | 12.5 to 150 |  | 12.5 to 150 | 12.5 to 150 |  | 12.5 to 150 | 12.5 to 150 |
| CN(C)c1ccc(-c2[nH]c(=O)c(C(=O)O)cc2Cc2ccccc2)cc1 [Cpd 1, 5-benzyl-6-[4-(dimethylamino)phenyl]-2-oxo-1,2-dihydropyridine-3-carboxylic acid] |  | 3.5 to 12.5 (≈ 10 to 35.9 µM) | < 1 |  | 12.5 to 150 (≈ 35.9 to 431 µM) | 3.5 to 12.5 (≈ 10 to 35.9 µM) |  |  | 12.5 to 150 (≈ 35.9 to 431 µM) |  |  |
| CCc1c(-c2ccc(N3C[C@H]4CN(C)C[C@H]4C3)cc2)[nH]c(=O)c(C(=O)O)c1O.Cl [Cpd 273, 5-ethyl-4-hydroxy-6-{4-[(3aR,6aS)-5-methylhexahydropyrrolo[3,4-c]pyrrol-2(1H)-yl]phenyl}-2-oxo-1,2-dihydropyridine-3-carboxylic acid hydrochloride] |  | 1 to 3.5 |  | 1 to 3.5 | 12.5 to 150 | 1 to 3.5 | 12.5 to 150 | 12.5 to 150 | < 1 | 12.5 to 150 |  |
| CCc1cc(C(=O)O)c(=O)[nH]c1-c1ccc(N2C[C@H](CN)[C@@H](C)C2)cc1 [Cpd 216, 6-{4-[(3S,4R)-3-(aminomethyl)-4-methylpyrrolidin-1-yl]phenyl}-5-ethyl-2-oxo-1,2-dihydropyridine-3-carboxylic acid] |  |  |  | 12.5 to 150 (≈ 35.2 to 422 µM) | 12.5 to 150 (≈ 35.2 to 422 µM) |  | 12.5 to 150 (≈ 35.2 to 422 µM) | 12.5 to 150 (≈ 35.2 to 422 µM) | 12.5 to 150 (≈ 35.2 to 422 µM) | 12.5 to 150 (≈ 35.2 to 422 µM) | 12.5 to 150 (≈ 35.2 to 422 µM) |
| CCc1cc(C(=O)O)c(=O)[nH]c1-c1ccc(N2CCC(N(C)C)C2)cc1 (stereo not drawn) [Cpd 149, 6-{4-[3-(dimethylamino)pyrrolidin-1-yl]phenyl}-5-ethyl-2-oxo-1,2-dihydropyridine-3-carboxylic acid] |  |  |  | 1 to 3.5 (≈ 2.81 to 9.85 µM) | 12.5 to 150 (≈ 35.2 to 422 µM) |  | 12.5 to 150 (≈ 35.2 to 422 µM) | 12.5 to 150 (≈ 35.2 to 422 µM) | < 1 | 12.5 to 150 (≈ 35.2 to 422 µM) | 12.5 to 150 (≈ 35.2 to 422 µM) |
| CCc1cc(C(=O)O)c(=O)[nH]c1-c1ccc(N2CCCC2C)cc1 (stereo not drawn) [Cpd 139, 5-ethyl-6-[4-(2-methylpyrrolidin-1-yl)phenyl]-2-oxo-1,2-dihydropyridine-3-carboxylic acid] |  |  |  | 3.5 to 12.5 (≈ 10.7 to 38.3 µM) | 3.5 to 12.5 (≈ 10.7 to 38.3 µM) |  | 12.5 to 150 (≈ 38.3 to 460 µM) | 12.5 to 150 (≈ 38.3 to 460 µM) | < 1 | 12.5 to 150 (≈ 38.3 to 460 µM) | 12.5 to 150 (≈ 38.3 to 460 µM) |
| CCc1c(-c2ccc(N(C)CCO)cc2)[nH]c(=O)c(C(=O)O)c1O [Cpd 18, 5-ethyl-4-hydroxy-6-{4-[(2-hydroxyethyl)(methyl)amino]phenyl}-2-oxo-1,2-dihydropyridine-3-carboxylic acid] |  | < 1 | < 1 | 3.5 to 12.5 (≈ 10.5 to 37.6 µM) | 3.5 to 12.5 (≈ 10.5 to 37.6 µM) |  | 12.5 to 150 (≈ 37.6 to 451 µM) | 12.5 to 150 (≈ 37.6 to 451 µM) | < 1 | 12.5 to 150 (≈ 37.6 to 451 µM) |  |
| CCc1cc(C(=O)O)c(=O)[nH]c1-c1ccc(N2CCCC2)cc1F [Cpd 38, 5-ethyl-6-[2-fluoro-4-(pyrrolidin-1-yl)phenyl]-2-oxo-1,2-dihydropyridine-3-carboxylic acid] |  | < 1 |  | 1 to 3.5 (≈ 3.03 to 10.6 µM) | 3.5 to 12.5 (≈ 10.6 to 37.8 µM) |  | 12.5 to 150 (≈ 37.8 to 454 µM) | 12.5 to 150 (≈ 37.8 to 454 µM) | < 1 | 12.5 to 150 (≈ 37.8 to 454 µM) |  |
| CCc1cc(C(=O)O)c(=O)[nH]c1-c1ccc(N(C)C)cc1F [Cpd 53, 6-[4-(dimethylamino)-2-fluorophenyl]-5-ethyl-2-oxo-1,2-dihydropyridine-3-carboxylic acid] |  | < 1 |  | 1 to 3.5 (≈ 3.29 to 11.5 µM) | 12.5 to 150 (≈ 41.1 to 493 µM) |  |  |  | < 1 |  |  |
